Experimental data published in ChEMBL document CHEMBL4308834, “Novel Allosteric Activators for Ferroptosis Regulator Glutathione Peroxidase 4” (J Med Chem, 2018).
pKd: −log10 of the molar value. Active and inactive are the calls of the source. The rule behind the calls is not given here.

Legend:
Homo sapiens [1] = species: Homo sapiens; assay: (§1) Activation of recombinant His-tagged human cytosolic GPX4 U46C mutant expressed in Escherichia coli M15 assessed as increase in oxidized glutathione-mediated oxidation of NADPH to NADP+ using tert-butyl hydroperoxide as substrate preincubated for 5 mins followed by substrate addition measured for 6 mins by glutathione reductase enzyme coupled fluorescence assay
[2] = Binding affinity to recombinant His-tagged human cytosolic GPX4 U46C mutant expressed in Escherichia coli M15 by SPR analysis
[3] = target: T1, Phospholipid hydroperoxide glutathione peroxidase GPX4 (Homo sapiens) (UniProt P36969); assay: Activation of GPX4 in human HT1080 cells assessed as inhibition of erastin-induced ferroptosis at 125 uM preincubated for 30 mins followed by erastin addition measured after 24 hrs by MTS assay; type: cell-based
T1 sequence (whole entry): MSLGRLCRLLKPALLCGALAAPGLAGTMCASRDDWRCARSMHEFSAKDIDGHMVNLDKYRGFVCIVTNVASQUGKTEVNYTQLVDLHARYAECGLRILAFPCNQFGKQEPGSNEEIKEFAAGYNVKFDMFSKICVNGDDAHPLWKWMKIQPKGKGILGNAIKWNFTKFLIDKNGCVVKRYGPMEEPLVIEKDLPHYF

[4] = target: Prostaglandin G/H synthase 1 (Homo sapiens) (UniProt P23219); assay: Inhibition of COX1 (unknown origin) at 500 uM preincubated for 15 mins followed by arachidonic acid substrate addition in presence of TMPD by spectrophotometric method
[5] = target: T2, Polyunsaturated fatty acid lipoxygenase ALOX15 (Homo sapiens) (UniProt P16050); assay: Inhibition of 15-LOX (unknown origin) at 500 uM preincubated for 1 mins followed by arachidonic acid substrate addition by spectrophotometric method
T2 sequence (whole entry): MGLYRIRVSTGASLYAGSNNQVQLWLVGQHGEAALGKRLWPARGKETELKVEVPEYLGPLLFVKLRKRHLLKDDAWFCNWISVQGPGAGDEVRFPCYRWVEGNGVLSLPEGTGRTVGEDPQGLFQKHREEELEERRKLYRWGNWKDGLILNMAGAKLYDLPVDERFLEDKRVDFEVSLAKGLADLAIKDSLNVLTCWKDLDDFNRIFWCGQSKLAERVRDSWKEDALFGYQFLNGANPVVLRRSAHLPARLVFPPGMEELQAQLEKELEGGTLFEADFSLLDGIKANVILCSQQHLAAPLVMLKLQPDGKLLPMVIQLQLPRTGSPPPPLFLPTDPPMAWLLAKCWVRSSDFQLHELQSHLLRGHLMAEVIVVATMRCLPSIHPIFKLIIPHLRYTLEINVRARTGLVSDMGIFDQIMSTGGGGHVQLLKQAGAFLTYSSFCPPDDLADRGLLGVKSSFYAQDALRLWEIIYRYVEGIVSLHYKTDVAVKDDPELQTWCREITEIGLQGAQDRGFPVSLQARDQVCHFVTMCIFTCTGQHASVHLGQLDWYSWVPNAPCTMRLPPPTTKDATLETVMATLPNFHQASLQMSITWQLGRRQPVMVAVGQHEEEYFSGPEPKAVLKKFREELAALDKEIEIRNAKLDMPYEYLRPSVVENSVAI

[6] = target: T3, Prostaglandin E synthase (Homo sapiens) (UniProt O14684); assay: Inhibition of mPGES1 (unknown origin) at 500 uM preincubated for 15 mins followed by PGH2 substrate addition and measured after 1 min by EIA relative to control
T3 sequence (whole entry): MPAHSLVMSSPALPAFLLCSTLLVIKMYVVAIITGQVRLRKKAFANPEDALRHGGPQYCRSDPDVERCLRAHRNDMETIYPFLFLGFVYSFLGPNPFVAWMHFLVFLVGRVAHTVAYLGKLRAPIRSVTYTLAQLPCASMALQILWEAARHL

[7] = target: T4, Leukotriene A-4 hydrolase (Homo sapiens) (UniProt P09960); assay: Inhibition of LTA4H (unknown origin) at 500 uM preincubated for 15 mins followed by LTA4 substrate addition and measured after 10 mins by ELISA relative to control
T4 sequence (whole entry): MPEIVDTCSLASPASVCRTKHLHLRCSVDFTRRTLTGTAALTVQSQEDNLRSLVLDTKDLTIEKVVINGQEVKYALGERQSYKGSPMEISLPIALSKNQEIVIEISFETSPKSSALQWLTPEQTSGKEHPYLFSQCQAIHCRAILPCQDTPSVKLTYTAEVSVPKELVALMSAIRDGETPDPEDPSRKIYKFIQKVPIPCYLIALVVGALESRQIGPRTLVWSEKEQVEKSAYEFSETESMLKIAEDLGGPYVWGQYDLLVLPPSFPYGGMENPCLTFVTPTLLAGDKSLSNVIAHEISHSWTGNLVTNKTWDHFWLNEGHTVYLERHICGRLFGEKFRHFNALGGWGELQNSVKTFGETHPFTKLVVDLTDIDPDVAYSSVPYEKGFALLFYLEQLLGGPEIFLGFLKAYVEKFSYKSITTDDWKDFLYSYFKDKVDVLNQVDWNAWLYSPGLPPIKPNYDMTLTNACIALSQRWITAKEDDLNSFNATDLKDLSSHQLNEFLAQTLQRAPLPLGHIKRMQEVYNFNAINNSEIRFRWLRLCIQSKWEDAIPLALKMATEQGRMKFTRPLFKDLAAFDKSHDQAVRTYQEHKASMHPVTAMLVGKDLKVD

Homo sapiens [8] = species: Homo sapiens; assay: as §1, with “recombinant” for “recombinant His-tagged”, “human” for “human cytosolic”, “D21A/D23A/U46C” for “U46C”, “assay relative to GPX4 U46C mutant control” for “assay”
[9] = target: Phospholipid hydroperoxide glutathione peroxidase GPX4 (Mus musculus) (UniProt O70325); assay: Activation of GPX4 in MEF assessed as increase in oxidized glutathione-mediated oxidation of NADPH to NADP+ using tert-butyl hydroperoxide as substrate preincubated for 5 mins followed by substrate addition measured for 6 mins by glutathione reductase enzyme coupled fluorescence assay; type: cell-based
[10] = Zinc chelating activity in presence of ZnSO4 after 10 mins by crystal violet staining based assay
[11] = target: Phospholipid hydroperoxide glutathione peroxidase GPX4 (Mus musculus) (UniProt O70325); assay: Activation of GPX4 in MEF assessed as increase in […] protection against CHOOH-induced cell death at 200 uM; type: cell-based
[12] = Antioxidant activity assessed as DPPH radical scavenging activity at 500 uM; type: functional

Chain of Phospholipid hydroperoxide glutathione peroxidase GPX4 (Mus musculus) (O70325 whole entry): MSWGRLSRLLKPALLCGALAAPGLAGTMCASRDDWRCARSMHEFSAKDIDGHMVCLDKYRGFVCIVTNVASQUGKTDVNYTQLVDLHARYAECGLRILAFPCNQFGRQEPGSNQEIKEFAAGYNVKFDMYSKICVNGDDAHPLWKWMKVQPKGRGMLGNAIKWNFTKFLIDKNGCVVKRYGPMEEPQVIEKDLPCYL
Chain of Prostaglandin G/H synthase 1 (Homo sapiens) (P23219 whole entry): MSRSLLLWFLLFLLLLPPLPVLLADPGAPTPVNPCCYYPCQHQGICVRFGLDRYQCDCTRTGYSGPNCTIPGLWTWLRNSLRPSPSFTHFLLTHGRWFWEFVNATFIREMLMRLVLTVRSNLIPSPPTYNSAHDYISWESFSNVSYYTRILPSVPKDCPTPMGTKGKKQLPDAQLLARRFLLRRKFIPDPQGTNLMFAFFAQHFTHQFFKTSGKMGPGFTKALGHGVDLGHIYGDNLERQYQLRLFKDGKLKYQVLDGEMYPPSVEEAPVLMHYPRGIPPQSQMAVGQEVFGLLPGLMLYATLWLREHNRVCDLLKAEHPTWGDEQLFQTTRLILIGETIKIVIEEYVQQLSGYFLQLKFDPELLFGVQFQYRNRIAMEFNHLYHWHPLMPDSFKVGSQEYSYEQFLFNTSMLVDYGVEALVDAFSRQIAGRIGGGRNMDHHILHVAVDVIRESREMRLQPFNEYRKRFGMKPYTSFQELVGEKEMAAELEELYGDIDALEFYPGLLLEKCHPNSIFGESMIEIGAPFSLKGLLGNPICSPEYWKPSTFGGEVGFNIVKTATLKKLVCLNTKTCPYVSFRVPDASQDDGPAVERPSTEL

Activity (Homo sapiens [1]): Dose-dependent effect
EC150 (Homo sapiens [1]): 248 µM
inhibition [3]: Active
inhibition [4]: inactive
inhibition [5]: inactive
inhibition [6]: 23%
inhibition [7]: 17%
EC150 (Homo sapiens [8]): > 1000 µM
Activity [9]: Dose-dependent effect
Activity [10]: inactive
SMILES: NS(=O)(=O)c1ccc(NC(S)=NCc2ccc(Cl)cc2)cc1
pKd [2]: 4.20
Activity [11]: Active
Activity [12]: inactive
